Assay results reported in PMC10398685 (ACS Omega, 2023).

Tests used:
Format in all cases: in vitro ADME
Calu-3 cells = assay: Steady-state intracellular uptake in Calu-3 cells; conditions: Calu-3, 60 min incubation, 50 μM at t = 0
Source text: (§1) While an enzymatic MTase assay represents a valuable fast screening platform providing the information that can be directly used for SAR analyses, it is not fully predictive for the compounds’ activity in whole cells. In order to verify the ability of the compounds to reach the intracellular compartment, we measured the steady-state accumulation of representative compounds in intact CCRF-CEM, VERO-E6, and Calu-3 cells (Tables 3 and S2). […] Compound 12q was almost completely cleared from the medium after 60 min incubation with the cells rendering it among the most permeable compounds of the series based on Kp values. It should be noted that the apparent intracellular concentration of the compounds may be biased by their potential metabolism. Therefore, we decided to subject the selected derivatives to in vitro stability studies. […]
(§2) methyltransferase activity as counts per minute (CPM). The CPM measurements in the absence of compound (5% DMSO) for each enzyme was defined as 100% activity.
(§3) 3.3. Intracellular Uptake
(§4) Steady-state cellular uptake was measured in CCRF-CEM cells (ATCC, CRL-119), VERO-E6 cells (ATCC, CRL-1586) and Calu-3 cells (HTB-55), respectively. Suspension cells (CCRF-CEM) were treated as follows: Prior to the experiment, cells were washed by centrifugation (250 x g, 5 min) in prewarmed (37 °C) serum-free RPMI medium and resuspended in the same vehicle to a concentration of 2 x 10^7 cells per mL. The cell suspension was distributed into the microtubes in 500 μL aliquots (10^7 cells), and the uptake process was initiated by the addition of 2.5 μL of the 10 mM DMSO solutions of the compounds (50 μM final conc.). Samples were incubated for 60 min at 37 °C in a CO 2 incubator using a rotary stirrer. The uptake was terminated by centrifugation at 900 x g for 5 min, at +4 °C. The medium was stored at −20 °C for later analysis of the extracellular concentration of the compounds. The cells were washed two times with 1 mL PBS (900 x g, 5 min, +4 °C), and also stored at −20 °C for subsequent analysis of the intracellular concentration of the compounds. At the day of the analysis, both media and the pelleted cells were quickly thawed. The cell pellets were extracted with 200 μL of ice-cold methanol by vigorous shaking, further diluted 1:1 with water and centrifuged at 20 000 x g for 10 min. As for the media samples, 10 μL aliquots were extracted with 990 μL of 50% methanol. The samples were then transferred to ECHO® -compatible 384-well plates and the amount of analytes were quantified by the ECHO -MS® System (Sciex) where acoustic droplet ejection module is coupled with Sciex 6500® triple quadrupole mass spectrometer operating with an electrospray ionization source. Spectrometer was run in the multiple reaction monitoring (MRM) mode. When necessary, the processed samples were further diluted in 50% methanol to fit in the calibration range. Calibration curves of the compounds in 50% methanol were measured alongside the samples within the same run. The ra tio between the total compound concentration in the cells and compound concentration in the medium (K p) at t=60 min was calculated according to: Kp = (Acell / Vcell) / Cmedium, where Acell is the amount of compound in the cell lysate, Vcell is the CCRF-CEM cell volume (3.38 μL/10^7 cells)16 and Cmedium is the compound concentration in the medium sample after correcting for sample dilution. Experiments were performed in duplicates.
(§5) For adherent cells (Vero E6 and Calu-3), the workflow was modified as follows: Cells were seeded on 6-well plates at a concentration of […] and 8.2 x 10^5 cells/well for Vero E6 and Calu-3, respectively, in 3 mL of serum-free culture media. The cells were left to attach overnight, the medium was then aspirated and replenished with 2 mL of fresh media containing the compounds (50 µM final conc). After 60 min at 37 °C the media was aspirated and the cells were washed twice with 1 mL of PBS. Then, 1 mL of fresh PBS was added and the cells were […]

[1] = Steady-state intracellular uptake in Calu-3 cells; conditions: human, Calu-3 cells; Calu-3, 60 min incubation, 50 μM at t = 0; read-out: Kp (intracellular accumulation ratio IC/EC) (converted)
Source text: as §1, §2, §3, §4, §5

[2] = Caco-2 permeability assay; conditions: human; for recovery at 3 h, 5 µM / Papp A→B at 3 h, 5 µM / Papp B→A at 3 h, 5 µM: Caco-2, 5 µM; for Papp A→B at 3 h, 5 µM / Papp B→A at 3 h, 5 µM: pH 7.4/7.4, 3 h; for efflux ratio at 3 h, 5 µM: Caco-2, (Papp B-A)/(Papp A-B)
Experimental: (§6) 3.6. Caco-2 permeability assay
(§7) Transepithelial bi-directional transport of tested compounds (5 µM, pH 7.4/7.4) across the Caco-2 monolayers was studied using the BD BioCoat HTS Caco -2 assay system (BD Biosciences, Bedford, MA) as described in detail elsewhere.17 Aliquots were collected from the donor and acceptor compartment at the end of transport period (3 h), integrity of monolayers were verified using Lucifer Yellow dye and the compounds were quantified using LC-MS/MS (Sciex 6500® triple quadrupole). The apparent permeability coefficient (Papp) was calculated from the following equation: Papp = (dQ / dt) / C0 * A, where dQ/dt is the rate of absorption of the drug across the cells, C0 is the donor compartment concentration at time zero, and A is the area of the monolayer. Efflux ratio was expressed as (Papp B-A) / (Papp A-B). Recovery (%) was determined as (total compound mass in donor and receiver compartments at the end of the incubation / initial compound mass in the donor compartment) x 100.

Caco-2 monolayers = assay: Caco-2 permeability assay; conditions: Caco-2, 5 µM, pH 7.4/7.4, 3 h
Experimental: as §6, §7

## CCN(C[C@H]1O[C@@H](n2cc(C#Cc3cnc4ccccc4c3)c3c(N)ncnc32)[C@H](O)[C@@H]1O)S(=O)(=O)c1ccc(OC)c(C#N)c1 [Compound 12e]
Calu-3 cells
  EC (extracellular concentration in the media at t = 60 min) ± sd: 5 ± 4 µM
[1]
  Kp at 1 h, 50 µM: 1770

## CCN(C[C@H]1O[C@@H](n2cc(C#Cc3cccnc3)c3c(N)ncnc32)[C@H](O)[C@@H]1O)S(=O)(=O)c1ccc(OC)c(C#N)c1 [Compound 12l]
[2]
  recovery at 3 h, 5 µM: 17%
  Papp A→B at 3 h, 5 µM: 0.1 ×10⁻⁶ cm/s
  Papp B→A at 3 h, 5 µM: 0.1 ×10⁻⁶ cm/s
  efflux ratio at 3 h, 5 µM: 0.9

## COc1ccc(S(=O)(=O)N(C)C[C@H]2O[C@@H](n3cc(C#Cc4cnc5ccccc5c4)c4c(N)ncnc43)[C@H](O)[C@@H]2O)cc1C#N [Compound 12q]
Caco-2 monolayers
  Papp B-A: 0.0 ± 0.0 x10-6 (cm/s)
[2]
  recovery at 3 h, 5 µM: 4%
  Papp A→B at 3 h, 5 µM: 0.2 ×10⁻⁶ cm/s
  efflux ratio at 3 h, 5 µM: 0.4
Calu-3 cells
  EC (extracellular concentration in the media at t = 60 min) ± sd: 5.6 ± 5.7 µM
  IC (intracellular concentration in the cells at t = 60 min) ± sd: 89,640 ± 6514 μM

## COc1ccc(S(=O)(=O)N(C)C[C@H]2O[C@@H](n3cc(C#Cc4ccc(C(N)=O)cc4)c4c(N)ncnc43)[C@H](O)[C@@H]2O)cc1C#N [Compound 12r]
[2]
  recovery at 3 h, 5 µM: 1%
  Papp A→B at 3 h, 5 µM: 0.1 ± 0.1 ×10⁻⁶ cm/s
  Papp B→A at 3 h, 5 µM: 0.1 ×10⁻⁶ cm/s
  efflux ratio at 3 h, 5 µM: 0.1
Calu-3 cells
  EC (extracellular concentration in the media at t = 60 min) ± sd: 4.0 ± 0.2 µM
[1]
  Kp at 1 h, 50 µM: 1250

## COc1ccc(S(=O)(=O)N(C)C[C@H]2O[C@@H](n3cc(C#Cc4cccnc4)c4c(N)ncnc43)[C@H](O)[C@@H]2O)cc1C#N [Compound 12s]
[2]
  recovery at 3 h, 5 µM: 3%
  Papp A→B at 3 h, 5 µM: 0.4 ± 0.3 ×10⁻⁶ cm/s
  Papp B→A at 3 h, 5 µM: 0.3 ± 0.1 ×10⁻⁶ cm/s
  efflux ratio at 3 h, 5 µM: 1.3
Calu-3 cells
  EC (extracellular concentration in the media at t = 60 min) ± sd: 14.7 ± 0.8 µM
[1]
  Kp at 1 h, 50 µM: 106
